From ChEMBL document CHEMBL1134805, “Cyclic imides as potent and selective alpha-1A adrenergic receptor antagonists” (Bioorg Med Chem Lett, 2001)
pKi: −log10 of the molar value.

Legend:
[1] = Bioavailability in dog (Beagle) (male) (dose 3 mg/kg i.v. and 10 mg/kg p.o.) measured from 1 to 24 hr; type: ADME, organism-based, Canis lupus familiaris; details: in vivo, po
[2] = Half-life in rats; type: ADME, organism-based; details: rat, in vivo
[3] = Bioavailability in rat (Sprague-Dawley) (male) (dose 1 mg/kg i.v. and 3 mg/kg p.o.) measured from 0.3 to 6 hr; type: ADME, organism-based; details: in vivo, po
[4] = target: T1, Alpha-1A adrenergic receptor (Homo sapiens, UniProt P35348); experiment: In vitro binding affinity towards cloned human Alpha-1A adrenergic receptor
T1 sequence (P35348 whole entry): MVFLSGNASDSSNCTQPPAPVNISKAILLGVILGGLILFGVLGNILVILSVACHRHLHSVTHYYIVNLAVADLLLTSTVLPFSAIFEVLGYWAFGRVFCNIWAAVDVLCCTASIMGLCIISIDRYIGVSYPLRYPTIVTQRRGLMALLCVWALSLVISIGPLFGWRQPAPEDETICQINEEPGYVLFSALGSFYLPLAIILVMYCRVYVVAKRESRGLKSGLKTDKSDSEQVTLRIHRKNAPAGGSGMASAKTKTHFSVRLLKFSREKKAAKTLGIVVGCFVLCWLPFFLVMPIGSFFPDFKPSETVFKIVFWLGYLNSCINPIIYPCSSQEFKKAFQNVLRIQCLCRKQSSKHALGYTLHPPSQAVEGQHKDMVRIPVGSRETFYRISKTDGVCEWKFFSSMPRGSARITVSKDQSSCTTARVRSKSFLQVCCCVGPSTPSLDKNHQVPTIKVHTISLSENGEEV

[5] = target: T2, Alpha-1D adrenergic receptor (Homo sapiens, UniProt P25100); experiment: In vitro binding affinity towards cloned human Alpha-1D adrenergic receptor
T2 sequence (P25100 whole entry): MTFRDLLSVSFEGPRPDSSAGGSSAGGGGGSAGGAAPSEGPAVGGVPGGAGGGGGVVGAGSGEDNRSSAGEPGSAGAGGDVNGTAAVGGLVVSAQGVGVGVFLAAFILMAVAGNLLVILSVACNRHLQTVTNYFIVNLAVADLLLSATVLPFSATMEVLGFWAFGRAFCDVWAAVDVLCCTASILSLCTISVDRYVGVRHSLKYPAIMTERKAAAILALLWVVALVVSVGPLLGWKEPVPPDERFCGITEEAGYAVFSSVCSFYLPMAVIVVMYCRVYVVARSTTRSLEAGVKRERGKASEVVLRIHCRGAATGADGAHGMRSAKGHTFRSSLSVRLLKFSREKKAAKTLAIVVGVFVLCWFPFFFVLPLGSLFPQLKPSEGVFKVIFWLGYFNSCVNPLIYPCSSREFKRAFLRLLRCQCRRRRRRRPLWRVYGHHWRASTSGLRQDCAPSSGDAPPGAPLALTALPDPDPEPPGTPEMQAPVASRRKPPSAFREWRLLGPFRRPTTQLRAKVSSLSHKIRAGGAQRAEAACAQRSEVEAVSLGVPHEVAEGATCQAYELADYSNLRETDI

[6] = target: T3, Alpha-1B adrenergic receptor (Homo sapiens, UniProt P35368); experiment: In vitro binding affinity towards cloned human Alpha-1B adrenergic receptor
T3 sequence (P35368 whole entry): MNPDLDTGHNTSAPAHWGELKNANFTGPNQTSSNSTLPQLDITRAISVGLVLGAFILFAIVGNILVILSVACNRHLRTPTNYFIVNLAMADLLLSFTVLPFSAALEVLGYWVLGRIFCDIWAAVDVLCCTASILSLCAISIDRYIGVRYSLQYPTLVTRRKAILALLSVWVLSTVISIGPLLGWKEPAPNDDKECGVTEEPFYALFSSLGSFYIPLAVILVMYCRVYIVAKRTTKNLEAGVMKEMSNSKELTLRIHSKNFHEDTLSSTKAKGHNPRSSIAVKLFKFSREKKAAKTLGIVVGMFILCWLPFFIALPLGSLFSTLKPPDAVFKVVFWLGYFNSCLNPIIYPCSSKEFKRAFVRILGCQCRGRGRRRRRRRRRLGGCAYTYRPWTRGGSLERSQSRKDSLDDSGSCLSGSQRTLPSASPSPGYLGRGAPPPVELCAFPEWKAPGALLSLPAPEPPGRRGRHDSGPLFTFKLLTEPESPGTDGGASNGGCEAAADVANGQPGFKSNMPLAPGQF

[7] = Half-life in dogs; type: ADME, organism-based, Canis lupus familiaris; details: dog, in vivo

Structure (SMILES)	bioavailability [1] [%]	half-life [2] [h]	bioavailability [3] [%]	pKi [4]	pKi [5]	pKi [6]	half-life [7] [h]
Cc1ccc(C2(c3ccc(C)cc3)CC(=O)N(CCCN3CCC(C#N)(c4ccccc4C)CC3)C2=O)cc1	8	2.5	18	8.77	5.82	5.72	1.3
Cc1ccc(C2(c3ccc(C)cc3)OC(=O)N(CCCN3CCC(C#N)(c4ccccc4C)CC3)C2=O)cc1	–	–	–	7.11	< 5.30	< 5.70	–
COC(=O)C1(c2ccccc2)CCN(CCCNC(=O)C(c2ccc(C)cc2)c2ccc(C)cc2)CC1	–	–	–	7.77	6.01	6.77	–
Cc1ccc(C(O)(C(=O)NCCCN2CCC(C#N)(c3ccccc3C)CC2)c2ccc(C)cc2)cc1	–	1.3	< 1	8.70	5.82	6.24	–
Cc1ccc(C2(c3ccc(C)cc3)CC(=S)N(CCCN3CCC(C#N)(c4ccccc4Cl)CC3)C2=O)cc1	–	–	–	6.66	< 5.30	< 5.70	–
Cc1ccc(C(O)(C(=O)NCCCN2CCC(C#N)(c3ccccc3)CC2)c2ccc(C)cc2)cc1	–	–	–	8.24	5.32	5.74	–
Cc1ccc(C2(c3ccc(C)cc3)CC(=O)N(CCCN3CCC(C#N)(c4ccccc4Cl)CC3)C2=O)cc1	11	0.66	19	9.32	6.66	7.01	1.7
Cc1ccc(C2(c3ccc(C)cc3)CC(=O)N(CC(O)CN3CCC(C#N)(c4ccccc4C)CC3)C2=O)cc1 (centres undefined)	–	–	–	8.01	5.39	5.82	–
